The results in this text go back to patent US20250241916A1, “TYROSINE KINASE INHIBITORS” (Nuvectis Pharma, Inc., priority 2022, published 2025).

Data set [1] has as its system KYSE70 (esophageal squamous cell carcinoma) xenograft. The data set is described as follows: KYSE70 mouse xenograft model, antitumor efficacy. The following applies: for Avg. Baseline Tumor Volume: 40 mg/kg.
Method: (§4) Prior to the in-life phase of the study, the animals were weighed and examined for signs of physical disorder. […] Tumor reads were collected every 2 days up to 28 days, starting treatment at 100 mm^3 tumor volume and ending at 2000 mm^3 tumor volume. A t-test was applied to determine the significance of differences in tumor volumes.
(§5) Dose materials were prepared weekly in aliquots and stored frozen at −20° C. until dosing. For enrollment of mice into study, subcutaneous tumor volumes were monitored daily until reaching a minimum palpable tumor volume (˜100 mm3 by caliper) in the required number of mice. […] Following randomization and study cohort assignment, each dose cohort was treated according to dosage and schedule. Mice were euthanized when study end points were reached.
(§6) Tumor volume measurements were performed every 2 days (up to 3 times per week) using a calibrated caliper. Tumor volumes were determined using the formula length (mm)×width (mm)×height (mm)×0.50.
(§7) A tumor volume humane endpoint was reached when a 20% loss in body weight (excluding tumor weight) was observed over a week, or a 15% loss in body weight over 2 to 3 day period, or if a body condition score less than 2 (Body Condition Scoring for scoring guide), or the tumor weight exceeded 10% of the non-tumor bearing body weight (tumor weight was calculated based on tumor height×length×width×0.50×density of 1 g/cm^3) or when the tumor exceeded 2000 mm^3 in size. Body weight measurements were performed every 2 days (up to 3 times per week) during the 28-day treatment period to coincide with tumor volume measurement schedule. A humane endpoint was reached when body weight loss exceeded 20%.
(§8) The abbreviation RTV28 (relative tumor volume, day 28)=[avg. tumor volume D28]/[avg. tumor volume at baseline]. The abbreviation TGI % (percent tumor growth inhibition)=(1−[RTV28 of the treated group]/[RTV28 vehicle])×100.
Data set [2] addresses T1, full-length human BTK[C481S] (GST-BTK[C481S]) (Homo sapiens, UniProt Q06187, C481S).
T1 construct: made in house
The data set is described as follows: Off-chip Mobility Shift Assay (MSA), tyrosine kinase inhibition, BTK[C481S]. The format is biochemical. The following applies: for inhibition at 0.5 µM: 0.5 μM compound. The protocol:
(§1) Compound A was dissolved in dimethylsulfoxide (DMSO), and further diluted with assay buffer to a final concentration of 0.5 μmol/L. Reference compounds for assay control were prepared similarly. For BTK inhibition studies, full-length human BTK [2-659 (end) amino acids of accession number NP_000052] was expressed as N-terminal GST-fusion protein (103 kDa) using baculovirus expressionsystem. GST-BTK was purified by using glutathione sepharose chromatography. For BTK[C481S] inhibition studies, full-length human BTK [2-659 (end) amino acids and C481S of accession number NP_000052] was expressed as N-terminal GST-fusion protein (103 kDa) using baculovirusexpression system. GST-BTK[C481S] was purified by using glutathione sepharosechromatography.
(§2) A 4× Substrate/ATP/Metal solution was prepared with buffer (20 mmol/L HEPES, 0.01% Triton X-100, 5 mmol/L DTT, pH 7.5), and a 2× kinase solution was also prepared with buffer (20 mmol/L HEPES, 0.01% Triton X-100, 1 mmol/L DTT, pH 7.5). 5 μL of 4× compound solution, 5 μL of 4× Substrate/ATP/Metal solution, and 10 μL of 2× kinase solution were mixed and incubated in a well of polypropylene 384 well microplate for 1 hour at room temperature. 70 μL of Termination Buffer (QuickScout Screening Assist MSA) was added to the well. The reaction mixture was applied to LabChip™ system, and the product and substrate peptide peaks were separated and quantitated. The kinase reaction was evaluated by the product ratio calculated from peak heights of product (P) and substrate (S) peptides (P/(P+S)).
(§3) The readout value of reaction control (complete reaction mixture) was set as a 0% inhibition, and the readout value of background (Enzyme(−)) was set as a 100% inhibition, then the percent inhibition of each test solution was calculated (Table 2).

In data set [3] the test system is Cal27 (tongue squamous cell carcinoma) xenograft. The data set is described as follows: Cal27 mouse xenograft model, antitumor efficacy.
Method: as §4, §5, §6, §7, §8
In data set [4] the target is T2, full-length human BTK (GST-BTK) (Homo sapiens, UniProt Q06187).
T2 construct: made in house
T2 sequence (Q06187 2-659): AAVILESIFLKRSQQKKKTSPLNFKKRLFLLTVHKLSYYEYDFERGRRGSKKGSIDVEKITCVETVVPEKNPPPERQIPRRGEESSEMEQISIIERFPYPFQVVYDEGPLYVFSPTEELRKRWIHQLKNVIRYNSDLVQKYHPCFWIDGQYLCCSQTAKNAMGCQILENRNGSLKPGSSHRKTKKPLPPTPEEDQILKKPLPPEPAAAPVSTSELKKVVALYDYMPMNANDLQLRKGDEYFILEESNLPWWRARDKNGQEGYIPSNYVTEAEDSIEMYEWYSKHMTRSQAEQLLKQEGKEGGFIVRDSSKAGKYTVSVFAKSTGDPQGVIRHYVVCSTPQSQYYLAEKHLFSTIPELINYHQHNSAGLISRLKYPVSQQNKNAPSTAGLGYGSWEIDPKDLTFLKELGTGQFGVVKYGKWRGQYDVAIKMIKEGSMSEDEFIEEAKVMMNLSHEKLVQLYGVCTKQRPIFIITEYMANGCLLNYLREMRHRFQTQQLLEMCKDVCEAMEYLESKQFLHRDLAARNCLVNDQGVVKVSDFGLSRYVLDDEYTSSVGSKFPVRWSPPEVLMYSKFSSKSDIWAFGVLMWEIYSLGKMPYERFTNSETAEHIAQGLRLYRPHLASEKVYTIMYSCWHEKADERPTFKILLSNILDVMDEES
The data set is described as follows: Off-chip Mobility Shift Assay (MSA), tyrosine kinase inhibition, BTK. The format is biochemical. The settings on record: for inhibition at 0.5 µM: 0.5 μM compound. The protocol: as §1, §2, §3

Data set [5] deals with pan cancer squamous lines. The data set is described as follows: Sensitivity of cancer cell line panel (102 cell lines) to compound. The following applies: FIG. 1, p<0.05. The format is cell-based. From the text: Examples of squamous cell carcinomas contemplated herein may include, but are not limited to, cutaneous squamous cell carcinoma, esophageal squamous cell carcinoma, head and neck squamous cell carcinoma, squamous cell carcinoma of the vulva, and lung squamous cell carcinoma.
A shift to the left represents increased sensitivity. Size of circles represents number of cell lines with alteration (minimum of cell lines per alteration).

Setting [6] is: 40 mg/kg oral once daily, 28 days, p≤0.001 vs vehicle on Day 27.
The mark [7] stands for this setting: (1-RTV28 treated/RTV28 vehicle)x100, 40 mg/kg oral once daily.
The mark [8] stands for this setting: Day 27, 40 mg/kg oral once daily.
The mark [9] stands for this setting: Day 28, 40 mg/kg oral once daily.
Where [10] appears, read: avg. tumor volume D28 / baseline, 40 mg/kg oral once daily.

T1 sequence (Q06187 2-659 C481S): as the sequence (Q06187 2-659) above, with C480S counted along it

A word on the IC50: it is the concentration that inhibits the measured activity by half. As usually defined, the inhibition is the relative decrease from the control value, in per cent. Regarding `COc1cc(-c2nn(CCN3CCC(N(C)C)CC3)c3ncnc(N)c23)ccc1NC(=O)OC(C)(C)C` [Compound A, tert-Butyl (4-(4-amino-1-(2-(4-(dimethylamino)piperidin-1-yl)ethyl)-1H-pyrazolo[3,4-d]pyrimidin-3-yl)-2-methoxyphenyl)carbamate], the “tumor growth inhibition” value is on record as “substantial tumor growth inhibition” in data set [1] (setting [6]) and “substantial TGI” in data set [3] (setting [6]). Moreover, the figures for the “Tumor Growth Inhibition (TGI)” value in data set [1] (setting [7]) and in data set [3] (setting [7]) were 95% and 86%, respectively. The “average tumor volume on Day 27” value in data set [1] (setting [8]) was found to be 31.5 mm^3; in data set [3] (setting [8]) it was 91.4 mm3. For the same molecule, the “mean percent increase from baseline in body weight” value in data set [1] (setting [8]) was determined as 2.0%; in data set [3] (setting [8]) it was 2.1%. The “decrease in tumor volume from baseline” value in data set [1] (Day 27 vs baseline, 40 mg/kg oral once daily) turned out to be 71%. Moreover, the figures for the “Avg. Day 28. Tumor Volume” value in data set [1] (setting [9]) and in data set [3] (setting [9]) were 31.5 mm^3 and 91.4 mm^3, respectively. The “Relative Tumor Volume (RTV28)” value in data set [1] (setting [10]) turned out to be 0.29; in data set [3] (setting [10]), 0.78. In addition, the “Avg. Baseline Tumor Volume” value in data set [1] (40 mg/kg oral once daily) is listed as 109.8 mm^3; in data set [1] (40 mg/kg oral once daily, listed as Cmpd A) it was 106.0 mm^3; in data set [3] (baseline, 40 mg/kg oral once daily) it was 116.2 mm^3. In addition, the IC50 in data set [2] was determined as 16.3 nM; in data set [4] it was 12.5 nM. Further, the inhibition at 0.5 µM is 95.1% in data set [2] and 96.9% in data set [4]. Moreover, the “sensitivity of pan cancer squamous carcinomas (10logIC50)” value in data set [5] was “high sensitivity”.

Turning to `CNC1CCN(CCn2nc(-c3ccc(NC(=O)OC(C)(C)C)c(OC)c3)c3c(N)ncnc32)CC1` [Compound B, tert-butyl (4-(4-amino-1-(2-(4-(methylamino)piperidin-1-yl)ethyl)-1H-pyrazolo[3,4-d]pyrimidin-3-yl)-2-methoxyphenyl) carbamate], in data set [2], the IC50 was 16.3 nM and the inhibition at 0.5 µM turned out to be 97.5%. For the same molecule, in data set [4], the IC50 was determined as 12.5 nM and the inhibition at 0.5 µM came out at 95.6%.
